Results published in patent publication US5587479A, “Basic derivatives of glutamic acid and aspartic acid as gastrin or cholecystokinin antagonists” (priority 1992, dated 1996).
Converted amounts (≈) assume the structure as drawn. Read-outs that look alike come from different tables or passages of the source. Values belong to the molecule of their own block, whether it stands above or below them.

How the values were obtained:
[1] = target: T1, cholecystokinin receptors of the pancreatic cells of the rat (CCK-A) (Rattus norvegicus, UniProt P30551); experiment: Inhibition of the binding of [125-I]-[Bolton-Hunter]-CCK-8 to rat pancreatic cells (anti-CCK-A)
T1 construct: The pancreatic cells of the rat were prepared as described by Makovec et al; from tissue; host or cells: rat pancreatic cells
T1 sequence (P30551 1-444): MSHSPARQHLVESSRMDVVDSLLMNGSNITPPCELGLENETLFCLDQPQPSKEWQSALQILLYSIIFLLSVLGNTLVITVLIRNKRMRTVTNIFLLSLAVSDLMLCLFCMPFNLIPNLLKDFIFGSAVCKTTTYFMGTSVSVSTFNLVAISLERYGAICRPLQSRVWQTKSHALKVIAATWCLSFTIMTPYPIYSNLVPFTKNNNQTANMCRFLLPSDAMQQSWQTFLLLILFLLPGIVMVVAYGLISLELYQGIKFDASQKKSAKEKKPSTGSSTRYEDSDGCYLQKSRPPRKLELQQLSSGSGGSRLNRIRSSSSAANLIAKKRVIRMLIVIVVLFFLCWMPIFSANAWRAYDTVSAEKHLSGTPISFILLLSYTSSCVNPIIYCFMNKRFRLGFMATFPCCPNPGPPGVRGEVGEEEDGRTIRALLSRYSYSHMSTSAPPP
Description: The pancreatic cells of the rat were prepared as described by Makovec et al. (reference cited) so as to produce about 5×10^6 cells/mi. The cells were then incubated together with the radioactive tracer and the compounds under test for 30 minutes at 37° C.
After the supernatant liquid had been discarded, the radioactivity associated with the pellet was determined with a gamma counter (80% efficiency).

[2] = target: T2, central CCK-B receptors (guinea pig cortical membrane) (Cavia porcellus, UniProt H0VZC5); experiment: Inhibition of binding of (3-H)[N-methyl-N-leucine]CCK-8 to guinea pig cortical membranes (anti-CCK-B)
T2 construct: Cerebral cortices of white male guinea pigs were therefore used; from tissue; host or cells: guinea pig cerebral cortex membranes
T2 sequence (H0VZC5 1-426): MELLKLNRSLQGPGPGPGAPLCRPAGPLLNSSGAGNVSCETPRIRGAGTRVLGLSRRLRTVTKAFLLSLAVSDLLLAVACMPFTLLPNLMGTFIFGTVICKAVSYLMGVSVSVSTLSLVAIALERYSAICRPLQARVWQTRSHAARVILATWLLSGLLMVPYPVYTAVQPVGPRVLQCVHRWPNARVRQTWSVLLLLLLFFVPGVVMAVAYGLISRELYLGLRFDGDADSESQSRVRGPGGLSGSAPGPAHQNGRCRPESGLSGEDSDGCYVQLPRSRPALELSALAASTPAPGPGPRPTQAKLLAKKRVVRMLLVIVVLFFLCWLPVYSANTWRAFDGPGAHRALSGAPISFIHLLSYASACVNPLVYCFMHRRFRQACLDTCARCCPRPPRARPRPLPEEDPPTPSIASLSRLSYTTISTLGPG
Description: Cerebral cortices of white male guinea pigs were therefore used, according to the method mentioned above, so as to obtain a membrane content/ml corresponding to about 300 mcg of proteins/mi. The membranes were incubated together with the radioactive tracer and the compounds under test for 150 minutes at 25° C. After the supernatant liquid had been discarded, the radioactivity associated with the pellet was determined with a liquid scintillator.

guinea-pig ureters = experiment: Antispastic activity in vitro: spontaneous motility of guinea-pig ureters; conditions: for IC50: Cavia porcellus, five minutes contact, 37° C.
From the text: The isotonic contractions were detected by means of a force transducer and recorded. […] A given concentration of the product under test was then introduced into the bath and left in contact with the prepared specimen for five minutes, after which the ureter was washed until its own spontaneous activity was re-established.

[3] = system: acid secretion induced by pentagastrin; experiment: Activity against gastric secretion stimulated with pentagastrin in the anaesthetized rat; type: in vivo; conditions: for ED50: iv, anaesthetized rat, pentagastrin 30 mcg/kg/h, I.V. bolus, read-out: Antagonistic activity (ID50) towards acid secretion induced by pentagastrin
Description: The investigation of the activity against gastric secretion performed by the compounds of the invention by means of an antigastrin mechanism was carried out in vivo in anaesthetized rats with the use of male animals weighing about 200 g. Gastric secretion was stimulated with pentagastrin and the method of K. S. Lai [Gut 5, (1964), 327-341] was used, slightly modified.
After tracheotomy, the oesophagus and duodenum were cannulated. Perfusion was carried out with a tepid solution (37° C.) of 0.25 mM NaOH which was passed through the stomach by means of a peristaltic pump at a constant flow rate of 1 ml/minute. After stabilization for 20 minutes, the stimulant, dissolved in a physiological solution, was perfused for 120 minutes at a dose of 30 mcg/kg/h in a volume of 0.95 ml/hour. After perfusion for 60 minutes (the basal simulation), the product under test was administered intravenously (I.V.) as a bolus and the perfusion of the stimulant was continued for a further 60 minutes. The acid secretion was recorded continuously as a function of time.
The activity of the product was evaluated as the percentage reduction in the secreted acidity after the administration of the product compared with the basal acidity measured during the first 60 minutes of collection in the presence of pentagastrin alone.

CCK-B receptors = conditions: guinea-pig; cited from earlier work
mouse = experiment: Anxiolytic activity in the mouse, Black and White Box test; type: in vivo; conditions: for TOTAL MOV.: five minutes; for anxiolytic activity in the Black and White Box test (in words): IP
Description: In order to confirm the hypothesis that the potent activity of some of the compounds of the invention against central CCK-B may be correlated with a possible anxiolytic activity, this potential activity was evaluated in the mouse with the use of the "Black and White Box test". This experimental model, which was carried out according to Costall et al. [Pharm. Biochem. Behav. 32 (1989), 777-785] used a box with dimensions of 45×21×21 (h) cm. divided into two compartments which communicated with each other by means of a 13×5 cm hole. The smaller compartment (1/3 of the total area) had black walls, whereas the larger had transparent walls and was illuminated by a lamp which was placed 20 cm above the box and supplied light at 20 W. Under the floor was an activity meter which registered the movements performed by the animal in the individual compartments. The experiment was started by placing the animal in the centre of the illuminated box; as well at its movements, the time which the animal spent in the dark and in the light and the number of times it moved between the 2 compartments were recorded for five minutes. In general, a control animal tended preferably to stay in the dark compartment where it felt better protected from an unusual enviromental situation which put it in a state of anxiety. In this experimental model ( see the reference cited above), a compound having anxiolytic activity decreased the % of movements into the dark in comparison with the total movements, increased the movements between the two light-dark compartments, and increased the % of the total time time spent in the light. The results obtained are given in Table 5 below in which the activities obtained with the compound 1 (the rectus series ) and its enantiomer 2 (sinister) tested in comparison with diazepam and the CCK-B antagonist L365-260.

[4] = IC50, inhibition of binding of (3-H)[N-methyl-N-leucine]CCK-8 to the guinea pig cortical membrane, 150 minutes at 25° C.
[5] = force of the contractions, read-out: IC50 (force), inhibition of the spontaneous motility of guinea-pig ureters in vitro
[6] = frequency of the contractions, read-out: IC50 (frequency), inhibition of the spontaneous motility of guinea-pig ureters in vitro

IC50 ([1]; 30 minutes at 37° C., read-out: IC50, inhibition of the binding of (125-I)(B-H)-CCK-8 to the pancreatic cells of the rat): 2.8 µM
IC50 [2, 4]: 2.9 µM
IC50 (guinea-pig ureters; [5]): 32 µg/mL (≈ 57.9 µM)
IC50 (guinea-pig ureters; [6]): 100 µg/mL (≈ 181 µM)
Molecule: CCCCCN(CCCCC)C(=O)[C@@H](CCC(=O)NCCN1CCOCC1)NC(=O)c1ccc2ccccc2c1 [Compound 61]

Molecule: CN1CCN(C(=O)CC[C@@H](NC(=O)c2cc(Cl)cc(Cl)c2)C(=O)N2CCC3(CCCCC3)CC2)CC1 [Compound 13]
ED50 [3]: 8.5 mg/kg

Molecule: non-sulphated [3-H][N-methyl-N-leucine]CCK-8
affinity for the receptors of the cortex (CCK-B), times greater than for those of the pancreas (CCK-A) (CCK-B receptors): about 4000 times

activity relative to its acidic parent compound CR 2194 (CCK-A binding) ([1]; rat pancreatic cells): about twice
IC50 [2, 4]: 0.7 µM
times less active than pentagastrin (CCK-B binding) ([2]; guinea-pig cortical membranes): about 200 times
times more potent than the CCK-A antagonist R-lorglumide (CCK-B binding) ([2]; guinea-pig cortical membranes): about 10 times
times more potent than the gastrin antagonist CR 2194 (CCK-B binding) ([2]; guinea-pig cortical membranes): about 3 times
IC50 (guinea-pig ureters; [5]): 23 µg/mL (≈ 43.9 µM)
IC50 (guinea-pig ureters; [6]): 29 µg/mL (≈ 55.4 µM)
Molecule: CN1CCN(C(=O)CC[C@@H](NC(=O)c2cc(Cl)cc(Cl)c2)C(=O)N2CCC3(CCCC3)CC2)CC1 [Compound 1]
ED50 [3]: 9 mg/kg
activity times higher than that of its S enantiomer, compound 2 ([3]; rat, pentagastrin-induced acid secretion): about three
times more active than CR 2194, calculated on a molar basis ([3]; rat, pentagastrin-induced acid secretion, molar basis): about 1.5 times
times more active than CR 2194 ([3]; rat, pentagastrin-induced acid secretion, weight basis): about 1.2 times
LIGHT TIME (%) TOTAL TIME (mouse; 0.01 mg/kg IP): 32.3%
LIGHT TIME (%) TOTAL TIME: % EFF.VS CONTROL (mouse; 0.01 mg/kg IP): 17%
LIGHT-DARK MOVEMENTS (mouse; 0.01 mg/kg IP): 13.2
LIGHT-DARK MOVEMENTS: % EFF. VS CONTROL (mouse; 0.01 mg/kg IP): 3%
MOV. DARK (%) TOTAL MOV. (mouse; 0.01 mg/kg IP): 50%
MOV. DARK (%) TOTAL MOV.: % EFF. VS CONTROL (mouse; 0.01 mg/kg IP): 0%
TOTAL MOV. (mouse; 0.01 mg/kg IP): 478
LIGHT TIME (%) TOTAL TIME (mouse; 0.1 mg/kg IP): 35.4%
LIGHT TIME (%) TOTAL TIME: % EFF.VS CONTROL (mouse; 0.1 mg/kg IP): 28%
LIGHT-DARK MOVEMENTS (mouse; 0.1 mg/kg IP): 15.0
LIGHT-DARK MOVEMENTS: % EFF. VS CONTROL (mouse; 0.1 mg/kg IP): 17%
MOV. DARK (%) TOTAL MOV. (mouse; 0.1 mg/kg IP): 47%
MOV. DARK (%) TOTAL MOV.: % EFF. VS CONTROL (mouse; 0.1 mg/kg IP): -5%
TOTAL MOV. (mouse; 0.1 mg/kg IP): 461
LIGHT TIME (%) TOTAL TIME (mouse; 1 mg/kg IP): 30.5%
LIGHT TIME (%) TOTAL TIME: % EFF.VS CONTROL (mouse; 1 mg/kg IP): 10%
LIGHT-DARK MOVEMENTS (mouse; 1 mg/kg IP): 12.9
LIGHT-DARK MOVEMENTS: % EFF. VS CONTROL (mouse; 1 mg/kg IP): 0%
MOV. DARK (%) TOTAL MOV. (mouse; 1 mg/kg IP): 45%
MOV. DARK (%) TOTAL MOV.: % EFF. VS CONTROL (mouse; 1 mg/kg IP): -9%
TOTAL MOV. (mouse; 1 mg/kg IP): 471
anxiolytic activity in the Black and White Box test (in words) (mouse): active for all the parameters tested
dose at which the compound is most active (mouse; bell-shaped curve): 0.1 mg/kg (I.P.)

IC50 [2, 4]: > 100 µM
Molecule: CN1CCN(C(=O)CC[C@@H](NC(=O)c2cccc(Cl)c2)C(=O)NCCC(C)(C)C)CC1 [Compound 23]
ED50 [3]: 25 mg/kg

IC50 [2, 4]: > 100 µM
IC50 ([2]; read-out: IC50, binding to guinea-pig cortical membranes): > 1 µM
IC50 (guinea-pig ureters; [5]): 25 µg/mL (≈ 47.8 µM)
IC50 (guinea-pig ureters; [6]): 20 µg/mL (≈ 38.2 µM)
Molecule: CN1CCN(C(=O)CC[C@H](NC(=O)c2cc(Cl)cc(Cl)c2)C(=O)N2CCC3(CCCC3)CC2)CC1 [Compound 2]
ED50 [3]: 24.8 mg/kg
LIGHT TIME (%) TOTAL TIME (mouse; 0.1 mg/kg IP): 28.3%
LIGHT TIME (%) TOTAL TIME: % EFF.VS CONTROL (mouse; 0.1 mg/kg IP): 0%
LIGHT-DARK MOVEMENTS (mouse; 0.1 mg/kg IP): 13.2
LIGHT-DARK MOVEMENTS: % EFF. VS CONTROL (mouse; 0.1 mg/kg IP): 0%
MOV. DARK (%) TOTAL MOV. (mouse; 0.1 mg/kg IP): 50%
MOV. DARK (%) TOTAL MOV.: % EFF. VS CONTROL (mouse; 0.1 mg/kg IP): -4%
TOTAL MOV. (mouse; 0.1 mg/kg IP): 477
LIGHT TIME (%) TOTAL TIME (mouse; 1 mg/kg IP): 27.5%
LIGHT TIME (%) TOTAL TIME: % EFF.VS CONTROL (mouse; 1 mg/kg IP): 0%
LIGHT-DARK MOVEMENTS (mouse; 1 mg/kg IP): 12.8
LIGHT-DARK MOVEMENTS: % EFF. VS CONTROL (mouse; 1 mg/kg IP): 0%
MOV. DARK (%) TOTAL MOV. (mouse; 1 mg/kg IP): 50%
MOV. DARK (%) TOTAL MOV.: % EFF. VS CONTROL (mouse; 1 mg/kg IP): -4%
TOTAL MOV. (mouse; 1 mg/kg IP): 462
anxiolytic activity in the Black and White Box test (in words) (mouse): completely inactive

IC50 [2, 4]: 2.8 µM
IC50 (guinea-pig ureters; [5]): 4.5 µg/mL (≈ 8.13 µM)
IC50 (guinea-pig ureters; [6]): 4.3 µg/mL (≈ 7.77 µM)
Molecule: O=C(CC[C@@H](NC(=O)c1cc(Cl)cc(Cl)c1)C(=O)N1CCC2(CCCC2)CC1)NCCN1CCOCC1 [Compound 3]
ED50 [3]: 12.8 mg/kg
activity on guinea-pig ureters (in words) (guinea-pig ureters): extremely active
